Data set [1] deals with epiphyseal growth plate. Briefly: Experiment 5: 35S[SO4] autoradiography of epiphyseal growth plates. The data set is classed as in vivo, rats. The settings on record: for mean density value of autoradiograms in the region of the epiphyseal growth plate (area under scan curve; black = 0, white = 255): 20 hours after 20 μCi 35S[SO4] i.p. on day 18 of Experiment 1, 12 autoradiograms per group, control 125.6; for incorporation of radioisotope into sulfated glycosaminoglycans of proteoglycans of the epiphyseal growth plates, compared to control: 20 hours after 35S[SO4] injection. How it is done:
At the end of Experiment 1, described above, the rats were injected intra-peritonealy with 20 μCi of ^35S[SO4] in 1 ml of saline on day 18 and sacrificed 20 hours after the injection. The femurs were removed and the distal ends of the bones were processed histologically for autoradiography. Histological sections of the bones were used to make autoradiograms on X-ray film and were also processed for routine histology, including Toluidine blue staining for assessment of the proteoglycans in the growth plate. No histological abnormalities were detected in the histology sections obtained from any of the experimental groups of animals. The density of the autoradiograms in the region of the epiphyseal growth plate was evaluated and quantified utilizing a scanning microscope and the appropriate software. The software calculates the density of the autoradiogram by scoring a black region (maximally incorporated radioactivity) as 0 and a white region (no incorporated radioactivity) as 255. The areas under the curves of the scan of the autoradiogram (see FIG. 5) are then computed to give the stated values. The mean values of all of the autoradiograms (12 autoradiograms for each group of animals) were: Control, 125.6; Glc-supplemented, 127.1; GlcNBu—supplemented, 143.2. FIG. 5 illustrates scans of typical autoradiograms for the control, Glc-supplemented and GlcNBu-supplemented groups. Each scan is illustrated by a curve whose bases (at the top right and left of the figure) represent radioisotope incorporation at the periphery of the epiphyseal growth plate, while the trough of the curve (in the central part of the figure) represents radioisotope incorporation in the central part of the epiphyseal growth plate. It can be seen that for each of the experimental groups less radioactivity has been incorporated in the central part of the epiphyseal growth plates (the trough of the curve), compared to the periphery of the epiphyseal growth plate (the bases of the curve). The curves with the deepest, middle and least troughs represent autoradiograms from the epiphyses of animals fed with GlcNBu (dots-dashes), Glc (dots) and controls (solid line), respectively, as described in Experiment 1.

A short description of data set [2]: Experiment 1: weight gain of rats on restricted diet (20 g crushed chow/day) with supplement mixed in chow. The data set is classed as in vivo, Sprague-Dawley male rats. Conditions: for average weights and rates of weight gain and growth: days 4 to 11, 20 g chow/day supplemented with 1.0 g GlcNBu or 0.75 g Glc (equimolar) per day per animal; for average weights and rates of weight gain and growth / average rates of weight gain and growth and body weights: compared to control; for average rates of weight gain and growth and body weights: days 12 to 18, 20 g chow/day supplemented with 1.5 g GlcNBu or 1.148 g Glc (equimolar) per day per animal; for stimulation of weight gain and growth (overall, Experiment 1): oral supplementation of restricted diet, 18 days. The text has this: Twelve Sprague-Dawley male rats of body weights between 85 and 90 g each were placed in metabolic cages with access to food, each in an individual separate feeding compartment, so the animals could consume all their food without loss or spillage. Each morning 20 g of crushed commercial chow, which was less than the average determined amount of crushed chow these animals consume. ad lib, was placed in each individual feeding compartment. This procedure ensured that each animal would completely consume all of the crushed chow placed in each feeding compartment over the 24 hours starting with the said placement of the food. Supplementation of the crushed chow with the compounds to be tested was accomplished by mixing the compound with the chow. All test compounds were fully acceptable by the animals and the feeding compartments were emptied by the animals of the crushed chow and any test compound mixed therein, within 24 hr from the beginning of each feeding period. The animals were allowed free access to drinking water throughout the experimental period, which they consumed ad lib. The animals, obtained from a single commercial shipment, were randomly assigned to three experimental groups with four animals in each group. The experimental groups of animals are designated in FIG. 1 (A & B) as control; N-butyryl-D-glucosamine, shown as formula (II) and abbreviated as GlcNBu; and D-glucose abbreviated as Glc.
Starting at day 1 and continuing to day 12, inclusive, supplementations of the 20 g of crushed chow per day per animal were as following: Control group—no supplementation; GlcNBu group—supplementation with 1.0 g of GlcNBu per day per animal; Glc—supplementation with 0.75 g of Glc per day per animal, which corresponds to an equimolar amount of this GlcNBu supplementation.
On day 12 and continuing through day 18, the crushed chow (20 g given per day per animal) was further supplemented as follows: Control group—no supplementation; GlcNBu group—supplementation with 1.5 g of GlcNBu per day per animal; Glc —supplementation with 1.148 g of Glc per day per animal, which corresponds to an equimolar amount of this GlcNBu supplementation. It will be observed from FIG. 1 that there was no difference in the average rates of weight gain and growth or weights of the animals in the Glc and the control experimental groups of animals during the period of 12 to 18 days, inclusive.

Data set [3] in a line: Acute toxicology studies in rats (feeding). The settings on record: for rate of weight gain and growth compared to control animals: fed in significant amounts (glucosamine) or equimolar amounts (glucose). The data set is classed as in vivo. Here is the method: Acute toxicology studies were carried out in order to evaluate the toxicity in rats of the aforesaid compounds.

The conditions of data set [4]: Setnikar I et al. Arzneimittelforschung 1986; cited from earlier work.
Data set [5] in a line: Experiment 4: weight gain of rats fed ad libitum and gavaged with various amounts of supplement. The data set is classed as in vivo, Sprague Dawley male rats. Conditions: for effect on weight gain: 2000 mg/kg by gavage. Here is the method:
(§1) For the data illustrated in FIG. 4, thirty Sprague Dawley male rats were adapted for one week so that each of their weights at the onset of treatment was approximately 185 grams. Each treatment group consisted of six animals, each administered one of the following treatments: water, 20 mg/kg GlcNBu, 200 mg/kg GlcNBu, 2000 mg/kg GlcNBu of 2000 mg/kg GlcN. All animals were fed Purina Rat Chow and water ad libitum. […] For nine days, the compounds were administered using the gavage technique; half doses being administered at 08:00 and at 17:00. Final urine samples were collected, histological examinations were performed to identify any overt signs of damage and then samples from each were harvested. Urinanalysis was performed using reagent strips (Multistix 8 SG from Bayer Inc. Healthcare Division, Etobicoke ON). […] No symptoms of neurological damage such as seizures or problems with vision were observed. All animals were well groomed and clean, and their snouts were normal.

Data set [6] is described as follows: Experiment 4: toxicity observations (behaviour, histological examination, urinanalysis). The class given is in vivo. Conditions: gavage nine days; GlcN 2000 mg/kg, GlcNBu 20, 200, 2000 mg/kg; data not shown. Here is the method:
as §1

Data set [7] can be described thus: Experiment 3: weight gain of rats restricted to 10 g chow/day and gavaged with supplement. The data set is classed as in vivo, Sprague Dawley male rats. The settings on record: 300 mg by gavage three times daily, by the eighth day of treatment. Here is the method:
The weights, and behavioral and physical parameters of 20 Sprague Dawley male rats, 5 per treatment group, were monitored over a ten-day period. The control group was given Purina Rat Chow ad libitum. The treatment groups were restricted to 10 g of rat chow per day and were supplemented with one of 300 mg GlcNBu, 300 mg GlcN or water, administered by gavage three times daily (FIG. 3). The animals were then sacrificed by CO2 asphyxiation and their organs checked for signs of damage.

Data set [8] in a line: Experiment 2: weight gain of rats restricted to 10 g (later 15 g) chow/day, supplement dissolved in water then solid. The class given is in vivo, Sprague Dawley male rats. Here is the method:
The animals were maintained in metabolic cages for the duration of the study (FIG. 2). Parameters of behavior and physical appearance were observed daily for any indications of toxicological complications. Twelve Sprague Dawley male rats were restricted to 10 g of Purina Rat Chow per day for eight days. Treatment groups were provided with water containing 20 mg/mL GlcN or GlcNBu. Daily volumes of urine produced and water consumed were recorded. The mean water consumption (ml/day) for the three groups was: 22.80, 24.45 and 21.45 for the control, the GlcN-supplemented and the GlcNBu-supplemented groups, respectively. These values were not statistically significant. On day nine of the study, untreated water was provided and the mass of rat chow given daily was increased to 15 g, supplemented with an additional 1.0 g of solid treatment compound. On day 18, the animals were sacrificed by CO2 asphyxiation and their organs were inspected for damage.

Data on three molecules can be found in patent US20040152665A1, “Amelioration of decreased weight and growth by n-acylated glucosamines” (priority 2003, published 2004).

For the molecule `O=C[C@H](O)[C@@H](O)[C@H](O)[C@H](O)CO` [Glc, D-glucose, reference compound], in data set [1], the “mean density value of autoradiograms in the region of the epiphyseal growth plate (area under scan curve; black = 0, white = 255)” value was determined as 127.1 and the “incorporation of radioisotope into sulfated glycosaminoglycans of proteoglycans of the epiphyseal growth plates, compared to control” value is on record as “(relatively small) stimulation of epiphyseal plate metabolism”. For the same molecule, in data set [2], the “average weights and rates of weight gain and growth” value was “essentially identical”; the “average rates of weight gain and growth and body weights” value was “no difference”; the “stimulation of weight gain and growth (overall, Experiment 1)” value was “failed to stimulate growth or weight gain”. Besides, the “rate of weight gain and growth compared to control animals” value in data set [3] was “no significant change”.

For `N[C@H]1C(O)O[C@H](CO)[C@@H](O)[C@@H]1O` (stereo partly shown) [GlcN, glucosamine], the “concentrations of free glucosamine in the circulation after ingestion” value in data set [4] was “only very low or not detectable concentrations”. Also, in data set [5] (nine days), the “effect on weight gain” value is on record as “depression of weight gain”. The “rate of weight gain and growth compared to control animals” value in data set [3] was “decrease in the rate of weight gain and growth”.

As to `CCCC(=O)N[C@H]1C(O)O[C@H](CO)[C@@H](O)[C@@H]1O` (stereo partly drawn) [GlcNBu, N-butyryl-D-glucosamine], in data set [1], the “mean density value of autoradiograms in the region of the epiphyseal growth plate (area under scan curve; black = 0, white = 255)” value is 143.2 and the “incorporation of radioisotope into sulfated glycosaminoglycans of proteoglycans of the epiphyseal growth plates, compared to control” value is given as “less incorporation of the radioisotope”. Moreover, in data set [6], the “histological examinations for signs of toxicity” value was “failed to reveal any signs of toxicity”. In addition, in data set [2], the “average weights and rates of weight gain and growth” value was “significantly higher than those of the other groups”; the “average rates of weight gain and growth and body weights” value is “further increase in the rate and average body weights”; the “stimulation of weight gain and growth (overall, Experiment 1)” value was “stimulated the weight gain and growth”. Further, the “increase in weight compared to the same amount of GlcN” value in data set [7] is on record as “significantly greater increase in weight”. Also, the “increase in weights compared to water controls” value in data set [5] (20 mg/kg by gavage, by day 3) was “statistically significant from those of the water controls”. Moreover, the “average weight gain compared to the GlcN group (2000 mg/kg)” value in data set [5] (20 mg/kg by gavage, margin became insignificant by day seven) is reported as “significantly higher”. Further, the “increase in weights compared to water controls” value in data set [5] (200 mg/kg by gavage, by day 5) is reported as “statistically significant from those of the water controls”. Also, the “average weight gain compared to the GlcN group (2000 mg/kg)” value in data set [5] (200 mg/kg by gavage, significantly heavier by day 4) is on record as “significantly higher”. The “effect on weight gain” value in data set [5] (nine days) is “lesser stimulations, which were, nevertheless, higher than the control”. In addition, the “dose of maximal stimulatory effect on weight gain and growth” value in data set [5] (gavage, nine days, doses 20, 200, 2000 mg/kg) was 200 mg/kg. Moreover, in data set [8] (20 mg/mL in water for 8 days, then 1.0 g solid with 15 g chow, maintained after five days of treatment), the “weight gained over the water controls” value is reported as “consistent statistical differences in weight gained over the water controls”. Also, the “growth compared to the GlcN group” value in data set [8] (starting at about day 10) is listed as “grew somewhat more rapidly”. The “upper limit of feeding in terms of observed toxicity” value in data set [3] (oral feeding, rats) is given as “no upper limit”.
